Results from ChEMBL document CHEMBL3044731, “Insecticidal Effects of Organotin(IV) Compounds on Plutella Xylostella (L.) Larvae. II. Inhibitory Potencies Against Acetylcholinesterase and Evidence for Synergism in Tests With Bacillus Thuringiensis(BER.) and Malathion” (Met Based Drugs, 1994).
“And” between values parts separate entries of the source, which are not always exact repeats. Equal entries are not always repeated.

Target: Acetylcholinesterase (Plutella xylostella) (UniProt Q8MZM0)
Experiment: Inhibition of AChE in drug-resistant Plutella xylostella (diamondback moth) fourth-instar larvae homogenates at 0.1 mM using acetylthiocholine iodide substrate by colorimetric method
Conditions: not given

Chain of Acetylcholinesterase (Plutella xylostella) (Q8MZM0 entry or part of it): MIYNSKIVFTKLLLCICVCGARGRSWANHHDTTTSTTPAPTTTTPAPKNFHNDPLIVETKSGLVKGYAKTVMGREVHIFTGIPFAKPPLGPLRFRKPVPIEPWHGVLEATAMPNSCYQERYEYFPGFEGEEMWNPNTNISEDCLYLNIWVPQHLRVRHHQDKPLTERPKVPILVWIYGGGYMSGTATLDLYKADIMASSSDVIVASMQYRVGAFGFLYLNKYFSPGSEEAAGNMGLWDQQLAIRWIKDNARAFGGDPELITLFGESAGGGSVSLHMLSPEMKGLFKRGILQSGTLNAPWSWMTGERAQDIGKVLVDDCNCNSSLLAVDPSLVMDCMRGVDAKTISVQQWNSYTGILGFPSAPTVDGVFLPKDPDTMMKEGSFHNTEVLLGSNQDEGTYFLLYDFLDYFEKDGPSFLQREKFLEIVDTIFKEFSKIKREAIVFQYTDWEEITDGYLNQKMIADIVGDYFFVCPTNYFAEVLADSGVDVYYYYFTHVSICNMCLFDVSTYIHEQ

Molecule | inhibition
TRIPHENYLSTANNYL 2-(PHENYLCARBAMOYLTHIO)ACETATE | 31.1%
(4-chlorophenyl)diphenylstannyl 2-(phenylcarbamoylthio)acetate | 15.8%
triphenylstannyl 2-(2,4-dichlorophenylcarbamoylthio)acetate | 13.4%
triphenylstannyl 6-(piperidine-1-carbonylthio)hexanoate | 27%
S-triphenylstannyl piperidine-1-carbothioate | 14.8%
TRIPHENYLSTANNYL 2-([sequence])ACETATE | 27.6% and 31.8% and 42.1%
triphenylstannyl 2-(4-chlorophenylcarbamoylthio)acetate | 74.6%
triphenylstannyl 2-(piperidine-1-carbonylthio)acetate | 24.4%

Target: T1, Acetylcholinesterase (Plutella xylostella, UniProt Q8MZM0)
T1 sequence (Q8MZM0 whole entry): as the sequence (Q8MZM0 entry or part of it) above
Experiment: Inhibition of AChE in drug-sensitive Plutella xylostella (diamondback moth) fourth-instar larvae homogenates using acetylthiocholine iodide substrate by colorimetric method
Conditions: read-out: I50

Molecule | IC50
TRIPHENYLSTANNYL 2-(DIMETHYLCARBAMOYLTHIO)ACETATE | 0.00543 mM
TRIPHENYLSTANNYL 2-(DIMETHYLCARBAMOTHIOYLTHIO)ACETATE | 26.2 mM

System: Plutella xylostella
Experiment: Insecticidal activity against drug-resistant Plutella xylostella (diamondback moth) fourth-instar larvae exposed to compound through topical application followed by transfer onto fresh Brassica leaves assessed as insect mortality measured 48 hr post compound application
Type: functional
Conditions: not given

Molecule | LD50
CNC(=O)ON=C(C)SC [METHOMYL] | 1.43 ×10⁻³ mol/L
TRIPHENYLSTANNYL 2-(PHENYLCARBAMOYLTHIO)ACETATE | 1.5 ×10⁻³ mol/L
1-(cyclopentyldiphenylstannyl)-1H-1,2,4-triazole | 7.85 ×10⁻³ mol/L
METHYL TRIPHENYLSTANNYL OXALATE | 4.5 ×10⁻³ mol/L
(4-chlorophenyl)diphenylstannyl 2-(dimethylcarbamothioylthio)acetate | 2.36 ×10⁻³ mol/L
triphenylstannyl 2-(morpholine-4-carbonothioylthio)acetate | 1.66 ×10⁻³ mol/L
[sequence] 2-([sequence])ACETATE | 1.78 ×10⁻³ mol/L
1-(dicyclopentyl(phenyl)stannyl)-1H-1,2,4-triazole | 2.37 ×10⁻³ mol/L
TRIPHENYLSTANNYL ACETATE | 6.06 ×10⁻³ mol/L
triphenylstannyl 2-((2-isopropyl-5-methylcyclohexyloxy)carbonothioylthio)acetate | 3.62 ×10⁻³ mol/L
TRIPHENYLSTANNYL 4-OXOPENTANOATE | 6.95 ×10⁻³ mol/L
tricyclohexylstannyl 2-(piperidine-1-carbonothioylthio)acetate | 0.18 ×10⁻³ mol/L
4-(2-oxo-2-(triphenylstannyloxy)ethoxy)benzoic acid | 0.69 ×10⁻³ mol/L
tricyclohexylstannyl 2-(quinolin-8-yloxy)acetate | 0.57 ×10⁻³ mol/L
triphenylstannyl 2-(4-nitrophenoxy)acetate | 4.38 ×10⁻³ mol/L
CCOC(=O)CC(SP(=S)(OC)OC)C(=O)OCC (configuration not stated) [MALATHION] | 42.6 ×10⁻³ mol/L
triphenylstannyl 4-oxo-4-phenylbutanoate | 1.84 ×10⁻³ mol/L
TRIPHENYLSTANNYL 2-([sequence])BENZOATE | 2.06 ×10⁻³ mol/L
triphenylstannyl 4-(2-carbamoylhydrazono)pentanoate | 2.22 ×10⁻³ mol/L
TRIPHENYLSTANNYL 2-([sequence])ACETATE HYDRATE | 24 ×10⁻³ mol/L
triphenylstannyl 2-(4-chlorophenoxy)acetate | 2.26 ×10⁻³ mol/L
TRIPHENYLSTANNYL 2-([sequence])ACETATE | 3.23 ×10⁻³ mol/L and 1.8 ×10⁻³ mol/L
5-(triphenylstannylthio)-1,3,4-thiadiazol-2-amine | 2.31 ×10⁻³ mol/L
1-(tricyclopentylstannyl)-1H-1,2,4-triazole | 0.27 ×10⁻³ mol/L
triphenylstannyl 2-(4-chlorophenylcarbamoylthio)acetate | 0.9 ×10⁻³ mol/L
DICYCLOPENTYL(PHENYL)STANNANOL | 3.7 ×10⁻³ mol/L

Target: T1, Acetylcholinesterase
Experiment: Inhibition of AChE in drug-resistant Plutella xylostella (diamondback moth) fourth-instar larvae homogenates using acetylthiocholine iodide substrate by colorimetric method
Conditions: read-out: I50

Molecule | IC50
TRIPHENYLSTANNYL 2-(DIMETHYLCARBAMOYLTHIO)ACETATE | 13.1 mM
